# Data from US20250064932A1, “GLYCO-ENGINEERED CAR-T CELLS” (VIB VZW, priority 2021, published 2025).
# Like-named read-outs stand apart in the source and are kept apart here.
# Key:
# human CD8+ T cells = settings: for T cell proliferation: IL-2
# Procedure: Human CD8^+ T cells were purified and incubated with human T cell-activator CD3/CD28 dynabeads for T cell expansion and activation, and this in the presence of different cytokine combinations and increasing concentrations of DMSO. In order to evaluate the effect of DMSO on the proliferation of T cells in culture, cells were labeled with Tag-it Violet™ proliferation and cell tracking dye. […] Flow cytometry analysis was performed on multiple days following start up until day 11 in culture in order to evaluate T cell activation and differentiation markers.
# (§1) For human T cell phenotyping, cells were labeled with fluorescent antibodies against human CD8, CD62L and CD45RA (BD Biosciences) and CD3, CD4, CD25, CD69, CD197 (CCR7), TIM-3 (CD366), CD152 (CTLA4) and CD279 (PD-1) (Biolegend). A Fixable dye eFluor™ 780 (eBioscience) was used to evaluate live/dead cells.
# Peripheral blood lymphocytes were prepared by a Ficoll-Paque density centrifugation as described in the instruction manual for Leucosep™ (Greiner bio-one). CD8^+ T cells were isolated by negative selection (MojoSort™ Human CD8 T cell Isolation kit, Biolegend) according to the manufacture's protocol. Cells were cultured in RPMI 1640 medium (Gibco-BRL) supplemented with L-glutamine (0.03%, Gibco), 0.4 mM sodiumpyruvate (Merck Millipore) and 50 μM β-mercapto-ethanol (Sigma Aldrich) and 10% heat-inactivated fetal calf serum (FCS), in 48 well plates (Sarstedt) and stimulated with human anti-CD3/CD28 Dynabeads (1 bead:3 cell ratio) (Thermo Fisher Scientific) for 4 days at 37° C. Prior to cell seeding, Dynabeads and bead-bound cells were removed by separation on a magnet (after transfer to an Eppendorf tube) and the supernatant containing the CD8^+ T cells was collected. Cells were washed twice with PBS before putting them in culture with different cytokine combinations: (1) recombinant human (rh) IL-2 at 50 units/mL (Life Technologies); (2) rhIL-7 at 10 ng/mL (R&D systems) and rhIL-15 at 1 ng/mL (Miltenyi). Cytokines and medium were replaced every 2-3 days. Where indicated, increasing concentrations of DMSO (Sigma) were added as given by % v/v.
# (§2) Human T cells were stained with Tag-it Violet™ Proliferation and Cell Tracking Dye (Biolegend), according to manufacturer's protocol.
# lymphoma cell = settings: cited from earlier work
# [1] = test system: human lymphocytes and neutrophils; settings: up to 1% v/v DMSO, PMA for 4 hours; cited from earlier work
# CD4+ T cell = settings: cited from earlier work
# [2] = DMSO treated vs untreated, day 11, 1.2% DMSO
# Source text for human CD3+ T cells: A protocol for in vitro isolation of CD3^+ T cell population used herein includes stimulation of purified human CD3^+ T cells in the presence of IL-12 and culturing in the presence of either IL-2 or IL-7/-15. This cultivation method provides for CD3^+ T cells populations skewed towards a naive phenotype. […] To this end, we validated the effect of DMSO on the activation and differentiation of CD3^+ T cells in the presence of IL-12 and subsequent culturing with different cytokine combinations.
# We therefore evaluated the impact of increasing DMSO concentrations on the immunophenotype at day 14, and the impact of the highest DMSO concentration (1.2%) on the immunophenotype of CD3^+ T cell (sub)populations at day 13.
# as §1
# Leukocyte-enriched buffy coat samples were obtained from healthy donors attending the Red Cross center after informed consent and ethical committee approval (EC2019-1083). Peripheral blood lymphocytes were prepared by a Ficoll-Paque density centrifugation as described in the instruction manual for Leucosep™ (Greiner bio-one). CD3^+ T cells were isolated by negative selection (MojoSort™ Human CD3 T cell selection kit, Biolegend) according to the manufacture's protocol. Cells were cultured in IMDM+Glutamax medium (Gibco-BRL) supplemented with 10% heat-inactivated fetal calf serum (FCS) and stimulated with Immunocult™ Human CD3/CD28 T-Cell Activator (Stemcell Technologies) (25 μL/10^6 cells) for 3 days at 37° C. in the presence of 10 ng/mL IL-12 (Biolegend). Prior to cell seeding, cells were washed twice with PBS before putting them in culture with different cytokine combinations: (1) recombinant human (rh) IL-2 at 50 units/mL (Miltenyi); (2) rhIL-7 at 10 ng/mL (Miltenyi) and rhIL-15 at 10 ng/mL (Miltenyi). Cytokines and medium were replaced every 2-3 days. Cell densities were maintained between 1×10^6 and 3×10^6 cells/mL. Where indicated, increasing concentrations of DMSO (Sigma) were added as given by % v/v.
# as §2
smiles,measurement,setting,value
"C[S+](C)[O-] [DMSO, Dimethyl sulfoxide]",effect on survival of the cells,human CD8+ T cells,does not have a negative effect on survival
same,survival rate,human CD8+ T cells,small increases in survival rate
same,T cell proliferation,human CD8+ T cells; 0.6% DMSO,still tolerated
same,T cell proliferation,human CD8+ T cells; 1.2% DMSO,marked decrease in T cell proliferation
same,CD8+ T cell differentiation,"human CD8+ T cells; CD8+ T cells purified from the same donor, IL-12 stimulation, IL-7 and IL-15, 1.2% DMSO, day 13",clearly skewed from naïve-like towards a TCM phenotype
same,expression level of CD25,human CD8+ T cells; [2],lower
same,expression of CD69,human CD8+ T cells; [2],higher
same,decrease in proportion of CD8+ T cells expressing TIM-3,"human CD8+ T cells; IL-2, increasing DMSO",~4%
same,proportion of cells expressing PD-1 after stimulation,"human CD8+ T cells; IL-2, increasing DMSO",seems to decrease faster by day 7
same,T cell differentiation,human CD8+ T cells; IL-7 and IL-15,preferentially differentiate towards a TCM phenotype
same,DMSO concentration with inhibitory effect on T cell proliferation,"human CD8+ T cells; IL-7 and IL-15, prolonged culture",≥ 0.6%
same,TIM-3 expression level,"human CD8+ T cells; fluorescence intensity, in the presence of DMSO",markedly reduced
same,frequency of CD25 positive cells,human CD8+ T cells; increasing DMSO (0.1%-1.2%),decreases in time and with increasing DMSO concentration
same,proportion of CD69 positive cells,human CD8+ T cells; increasing DMSO (0.1%-1.2%),increases with increasing concentrations of DMSO
same,T cell differentiation subsets,"human CD8+ T cells; increasing DMSO, most clear with IL-2, day 11",a decrease in naive and effector CD8^+ T cells in favor of an increase in memory T cells
same,"cell surface marker expression (CD25, CD69, PD-1)",human CD3+ T cells; 1.2% DMSO,cell surface marker expression is increased
same,frequency of CD25 and CD69 positive cells,"human CD3+ T cells; 1.2% DMSO, IL-7 and IL-15, day 13",increases in the presence of DMSO
same,CD3+ T cell differentiation,"human CD3+ T cells; 1.2% DMSO, day 13",skews CD3^+ T cell differentiation towards a central memory phenotype
same,proportion of cells expressing PD-1,"human CD3+ T cells; 1.2% DMSO, day 13",seems to slightly increase
same,TCM population of CD8+ T cells,"human CD3+ T cells; 1.2% DMSO, about 20% in the untreated condition",over 80%
same,"expression of activation and exhaustion markers (CD25, CD69, PD-1)",human CD3+ T cells; DMSO up to 0.6%,does not alter the expression of activation and exhaustion markers
same,CD3+ T cell survival and subset distribution,"human CD3+ T cells; human, 13 day, 1.2 % v/v",did not impact CD3^+ T cell survival nor CD4′/CD8′ subset distribution
same,CD3+ T cell survival and proliferation,"human CD3+ T cells; human, 14 day",did not impact CD3^+ T cell survival and proliferation
same,impact on CD4+ T cell differentiation,human CD3+ T cells; increasing DMSO,less pronounced
same,CD4+/CD8+ subset distribution,"human CD3+ T cells; increasing DMSO, day 14",does not have an impact on the subset distribution
same,DMSO concentrations at which lymphoma cell death is prevented,lymphoma cell,1-2%
same,IFN-γ and TNF-α production in the cytoplasm,[1],did not change IFN-γ and TNF-α production
same,"DMSO concentrations that suppress CD4+ T cell activation, cell growth and cytokine secretion",CD4+ T cell,0.1-1%
